pEC50: −log10 of the molar value. Read-outs that look alike come from different tables or passages of the source.
Molecular target: T1, human mAChR M1 (Homo sapiens, UniProt P11229)
T1 sequence (P11229 1-460): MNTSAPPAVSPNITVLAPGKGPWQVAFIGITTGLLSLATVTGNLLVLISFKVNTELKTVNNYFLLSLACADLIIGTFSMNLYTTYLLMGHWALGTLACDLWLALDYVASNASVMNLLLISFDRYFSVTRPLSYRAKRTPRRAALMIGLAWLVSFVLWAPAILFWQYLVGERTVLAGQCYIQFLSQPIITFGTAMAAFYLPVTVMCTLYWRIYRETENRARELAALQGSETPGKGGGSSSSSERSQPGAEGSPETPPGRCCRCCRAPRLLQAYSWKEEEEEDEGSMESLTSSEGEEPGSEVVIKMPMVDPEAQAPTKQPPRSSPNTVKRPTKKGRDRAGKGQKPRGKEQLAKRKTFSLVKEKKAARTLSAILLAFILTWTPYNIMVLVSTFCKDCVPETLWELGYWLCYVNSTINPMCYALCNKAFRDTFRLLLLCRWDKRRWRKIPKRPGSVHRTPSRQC
Experiment: mAChR M1 cell-based functional assay: calcium mobilization, positive allosteric modulator mode (increase in EC20 acetylcholine response)
Settings: for Emax: read-out: Human M1 Emax (%)
Method in brief: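 PAM potency reflects the concentration-dependent increase in calcium response to an EC20 acetylcholine challenge, given 144 s into a 300 s read after compound addition at 4 s (EC80 follows at 230 s). Cells were hM1-expressing CHO-K1, loaded 50 min with Fluo-4 AM. Curves used 11 points at 1:3 dilutions and four-parameter logistic fitting.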

[1] = Table 2, human M1, read-out: Human M1 EC50
[2] = Table 1, mAChR M1 cell-based functional assay, PAM mode, species not given, read-out: EC50

pEC50 [1] | Emax (Table 2, human M1) [%] | pEC50 [2] | Compound
6.03 | 66.3 | – | CC1(C)COCCC1NC(=O)c1cc(Cc2ccc(-c3cncs3)cc2)c2sccc2n1 (stereo not shown) [Compound 390, N-(3,3-dimethyltetrahydropyran-4-yl)-7-[(4-thiazol-5-ylphenyl)methyl]thieno[3,2-b]pyridine-5-carboxamide]
5.82 | 69.1 | – | O=C(NC1CCC1)c1cc(Cc2ccc(-n3cccn3)cc2)c2sccc2n1 [Compound 436, N-cyclobutyl-7-[(4-pyrazol-1-ylphenyl)methyl]thieno[3,2-b]pyridine-5-carboxamide]
5.86 | 80.8 | – | Cc1nc(-c2ccc(Cc3cc(C(=O)NC4CCN5CCCC45)nc4ccsc34)cc2)cs1 (stereo not shown) [Compound 197, N-(hexahydro-1H-pyrrolizin-1-yl)-7-[[4-(2-methylthiazol-4-yl)phenyl]methyl]thieno[3,2-b]pyridine-5-carboxamide]
5.20 | 72 | – | Cc1nc(-c2ccc(Cc3cc(C(=O)N[C@H]4CCCOC4)nc4ccsc34)cc2)cs1 [Compound 189, 7-[[4-(2-methylthiazol-4-yl)phenyl]methyl]-N-[(3S)-tetrahydropyran-3-yl]thieno[3,2-b]pyridine-5-carboxamide]
8.22 | 61.6 | – | O=C(N[C@H]1CCOC[C@@H]1O)c1cc(Cc2ccc(-n3cccn3)cc2)c2sccc2n1 [Compound 293, N-[(3R,4S)-3-hydroxytetrahydropyran-4-yl]-7-[(4-pyrazol-1-ylphenyl)methyl]thieno[3,2-b]pyridine-5-carboxamide]
6.70 | 70 | – | O=C(NC1CCCC1=O)c1cc(Cc2ccc(-n3cccn3)cc2)c2sccc2n1 (stereo not shown) [Compound 437, N-(2-oxocyclopentyl)-7-[(4-pyrazol-1-ylphenyl)methyl]thieno[3,2-b]pyridine-5-carboxamide]
6.00 | 71.9 | – | Cn1ccc2nc(C(=O)N[C@@H]3CCCOC3)cc(Cc3ccc(-c4cscn4)cc3)c21 [Compound 463, 1-methyl-N-[(3R)-tetrahydropyran-3-yl]-7-[(4-thiazol-4-ylphenyl)methyl]pyrrolo[3,2-b]pyridine-5-carboxamide]
5.85 | 72.2 | – | Cc1csc2c(Cc3ccc(-n4cccn4)cc3)cc(C(=O)NCC3CCOCC3)nc12 [Compound 318, 3-methyl-7-[(4-pyrazol-1-ylphenyl)methyl]-N-(tetrahydropyran-4-ylmethyl)thieno[3,2-b]pyridine-5-carboxamide]
6.58 | 89.4 | – | Cn1cc(-c2ccc(Cc3cc(C(=O)NC4CC(F)C4)nc4ccsc34)cn2)cn1 (stereo not shown) [Compound 346, N-(3-fluorocyclobutyl)-7-[[6-(1-methylpyrazol-4-yl)-3-pyridyl]methyl]thieno[3,2-b]pyridine-5-carboxamide]
5.64 | 76.9 | – | CN1CC(NC(=O)c2cc(Cc3ccc(-n4cccn4)cc3)c3sccc3n2)C1 [Compound 435, N-(1-methylazetidin-3-yl)-7-[(4-pyrazol-1-ylphenyl)methyl]thieno[3,2-b]pyridine-5-carboxamide]
6.30 | 73.3 | – | Cn1ncc2nc(C(=O)N[C@H]3CCCC[C@@H]3O)cc(Cc3ccc(-c4cscn4)cc3)c21 [Compound 492, N-[(1S,2S)-2-hydroxycyclohexyl]-1-methyl-7-[(4-thiazol-4-ylphenyl)methyl]pyrazolo-[4,3-b]pyridine-5-carboxamide]
5.96 | 73.9 | – | O=C(NC1CCCOC1)c1cc(Cc2ccc(-n3cccn3)cc2)c2sccc2n1 (stereo not shown) [Compound 447, 7-[(4-pyrazol-1-ylphenyl)methyl]-N-tetrahydropyran-3-yl-thieno[3,2-b]pyridine-5-carboxamide]

Continued, molecule first:

Compound | pEC50 [1] | Emax (Table 2, human M1) [%] | pEC50 [2]
Cc1ncc(Cc2cc(C(=O)N[C@@H]3CCCC[C@H]3O)nc3ccsc23)cn1 [Compound 127, N-[(1R,2R)-2-hydroxycyclohexyl]-7-[(2-methylpyrimidin-5-yl)methyl]thieno[3,2-b]pyridine-5-carboxamide] | < 5.00 | 79.2 | –
Cc1ccc(Cc2cc(C(=O)NC3CCN(C)CC3)nc3c(C)csc23)cn1 [Compound 112, 3-methyl-N-(1-methyl-4-piperidyl)-7-[(6-methyl-3-pyridyl)methyl]thieno[3,2-b]pyridine-5-carboxamide] | 5.24 | 36.7 | –
O=C(N[C@@H]1CCOC[C@H]1O)c1cc(Cc2ccc(C(F)(F)F)nc2)c2sccc2n1 [Compound 91, N-[(3S,4R)-3-hydroxytetrahydropyran-4-yl]-7-[[6-(trifluoromethyl)-3-pyridyl]methyl]thieno[3,2-b]pyridine-5-carboxamide] | 7.13 | 87.9 | –
Cn1cc(-c2ccc(Oc3cc(C(=O)NC4CCOCC4)nc4ccsc34)c(F)c2)cn1 [Compound 4, 7-[2-fluoro-4-(1-methylpyrazol-4-yl)phenoxy]-N-tetrahydropyran-4-yl-thieno[3,2-b]pyridine-5-carboxamide] | – | – | 5.30
Cc1ccc(Cc2cc(C(=O)N[C@@H]3CCCC[C@H]3O)nc3c(C)csc23)cn1 [Compound 103, N-[(1R,2R)-2-hydroxycyclohexyl]-3-methyl-7-[(6-methyl-3-pyridyl)methyl]thieno[3,2-b]pyridine-5-carboxamide] | 6.63 | 89.3 | –
O=C(N[C@@H]1CCCC[C@H]1O)c1cc(Cc2ccc(-n3cccn3)cc2)c2sccc2n1 [Compound 73, N-[(1R,2R)-2-hydroxycyclohexyl]-7-[(4-pyrazol-1-ylphenyl)methyl]thieno[3,2-b]pyridine-5-carboxamide] | 7.30 | 87.9 | –
Cc1ccc(Oc2cc(C(=O)NCC3CCCO3)nc3ccsc23)cn1 (stereo not shown) [Compound 35, 7-[(6-methyl-3-pyridyl)oxy]-N-(tetrahydrofuran-2-ylmethyl)thieno[3,2-b]pyridine-5-carboxamide] | – | – | < 5.00
Cc1ccc(Cc2cc(C(=O)Nc3n[nH]c4ccccc34)nc3ccsc23)cn1 [Compound 65, N-(1H-indazol-3-yl)-7-[(6-methyl-3-pyridyl)methyl]thieno[3,2-b]pyridine-5-carboxamide] | 5.76 | 37.3 | –
Cn1cc(-c2ccc(Cc3cc(C(=O)N[C@H]4CCCCC[C@@H]4O)nc4ccsc34)c(F)c2)cn1 [Compound 54, 7-[[2-fluoro-4-(1-methylpyrazol-4-yl)phenyl]methyl]-N-[(1S,2S)-2-hydroxycycloheptyl]thieno[3,2-b]pyridine-5-carboxamide] | < 5.00 | 53.1 | –
Cc1ncc(Cc2cc(C(=O)NC3CCCCC3)nc3ccsc23)s1 [Compound 134, N-cyclohexyl-7-[(2-methylthiazol-5-yl)methyl]thieno[3,2-b]pyridine-5-carboxamide] | 5.49 | 37.6 | –
Cn1cc(-c2cc(F)c(Cc3cc(C(=O)N[C@H]4CCOC[C@@H]4O)nc4ccsc34)c(F)c2)cn1 [Compound 59, 7-[[2,6-difluoro-4-(1-methylpyrazol-4-yl)phenyl]methyl]-N-[(3R,4S)-3-hydroxytetrahydropyran-4-yl]thieno[3,2-b]pyridine-5-carboxamide] | 5.55 | 88.5 | –
Cc1csc2c(Cc3ccc(-n4cccn4)cc3)cc(C(=O)N[C@@H]3CCCC[C@H]3O)nc12 [Compound 116, N-[(1R,2R)-2-hydroxycyclohexyl]-3-methyl-7-[(4-pyrazol-1-ylphenyl)methyl]thieno[3,2-b]pyridine-5-carboxamide] | 6.49 | 78.7 | –

— US11111251B2, “Positive allosteric modulators of the muscarinic acetylcholine receptor M1” (Vanderbilt University, priority 2016, dated 2021)
